Measurements: patent US8252832B2, “Kinesin inhibitors as cancer therapeutics” (Novartis AG, priority 2007, dated 2012)

Tested on: MV4; 11
Assay: LDH release assay
Type: cell-based
Conditions: Homo sapiens; MV4;11, 48 h
Description: Identification of tumor types that are the most sensitive to the KSP inhibitors of the present invention can be accomplished using an unbiased approach that uses several cell-based assays. The assays chosen were as follows: • CellTiter-Glo®. This is an assay designed to measure ATP concentration in a cell culture, and can be correlated to cell number. Briefly CellTiter-Glo® (Promega Corporation) is a homogeneous method using the single CellTiter-Glo® reagent to detect ATP wherein ATP in the assay drives the activity of a thermostable luciferase to create a luminescent signal which can then be measured and correlated with the number of viable cells. Briefly, for adherent cells, 1,000 to 5,000 cells/well were plated in 96-well plates (100 μl/well) and let to adhere for 24 hours before being treated with drug. For non-adherent cells, 1,000 to 10,000 cells/well were plated in 96-well plates (100 μl/well) and immediately treated with drug. Drug dilutions were prepared in DMSO at 1000 times the final concentration. These dilutions were then diluted 1/100 in growth media before being added to the cells (11 μl/well) to achieve the desired final concentration. After 48 h in a 37° C. tissue culture incubator, the plates were processed for the CellTiter-Glo®assay according to the manufacturer's instructions. Protocol for a 72 hour cell proliferation assay: The 72 hour assay was performed the same way as the 48 hour assay except for the following modifications: For adherent cells, 500 to 5,000 cells/well were plated in 96-well plates (90 μl/well cell growth media) and left to adhere for 24 hours before being treated with drug. For non-adherent cells, 1,000 to 10,000 cells/well were plated in 96-well plates (90 μl/well cell growth media) and immediately treated with drug. Data values presented represent the concentration of test compound required for a 50% reduction in growth. • LDH release. […] The enzymatic reaction is coupled to a chemical reaction that uses a tetrazolium salt to form a formazan that is red and can be detected by its absorbance at 490 nm. […]

## CC(C)(C)[C@H](c1nc(-c2cc(F)ccc2F)cn1Cc1ccccc1)N(CC[C@H](N)CF)C(=O)CO [Compound IIa]
  EC50: 0.03 nM
